One may read the Kd as the equilibrium constant for the complex coming apart.

The target of one experiment is T1, KRas (Homo sapiens, UniProt P01116, G12S).
T1 construct: endogenous, A549 cells
The experiment can be described thus: CETSA in A549 cells ([…]°C stabilization at […]). The class given is cell-based.

A further experiment deals with T2, HRasG60A (Homo sapiens, UniProt P01112, G60A).
T2 construct: gene HRAS
The experiment can be described thus: SPR (steady-state); circular dichroism in support. The format is binding. For orientation: CD spectra are sensitive to the conformation of chiral molecules.

T2 sequence (P01112 1-166 G60A): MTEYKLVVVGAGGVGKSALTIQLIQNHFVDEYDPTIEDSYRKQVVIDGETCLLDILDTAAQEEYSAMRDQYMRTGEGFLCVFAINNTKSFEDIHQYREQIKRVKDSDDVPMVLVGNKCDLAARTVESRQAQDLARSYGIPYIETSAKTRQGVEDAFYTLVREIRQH

As to `O=C1CSC2(CCN(CCCN3c4ccccc4Sc4ccc(Cl)cc43)CC2)N1` [NSC290956, 1-Thia-4,8-diazaspiro[4.5]decan-3-one,8-[3-(2-chloro-10H-phenothiazin-10-yl)propyl]], at KRas, the “CETSA in A549 cells (4-6°C stabilization at 25 μM)” value was “target engagement of NSC290956 in KRas-addicted H358 (KRasG12C) and A549 (KRasG12S) cell lines”. Moreover, the dissociation constant (Kd) on HRasG60A turned out to be 21.3 µM.
